The source of these data is paper PMC7900168, “Nanocomposite-based dual enzyme system for broad-spectrum scavenging of reactive oxygen species” (Scientific Reports, 2021).

The subject of the assay is T1, horseradish peroxidase (HRP).
T1 construct: gene PRXC1A; native enzyme, free in solution
Put plainly: guaiacol oxidation assay, spectrophotometric, Michaelis-Menten fit. The assay is classed as biochemical, Armoracia rusticana. The note with it: native free enzyme; co-substrate hydrogen peroxide. The source says:
guaiacol oxidation assay, spectrophotometric, Michaelis-Menten fit on horseradish peroxidase (HRP)

The Km is the substrate concentration at which the rate is half of its maximum. Regarding `COc1ccccc1O` [guaiacol], the Km was determined as 1560 ± 80 µM.
